Assays:
Format in all cases: in vivo
[1] = system: non-transformed tobacco plants (Wt); test: Symptoms due to herbicide application on tobacco plants (damage classes 0-3); settings: 50 g Al/ha, one week after application
Source text: (§1) Seeds harvested from TO transformants will be put on standard soil for germination. Three weeks later plantlets (T1) will be transferred to single pots and grown under standard cultivation conditions (PCT/EP2010/070575, published as WO 2011/076889). Two weeks later, plants were sprayed with several N-(tetrazol-4-yl)- or N-(triazol-3-yl)arylcarboxamides as defined above.
(§2) Tables F1 to F5: Evaluation of the Symptoms Observed Due to the Application of the Herbicides on Transgenic Tobacco Plants, Expressing the Mutant Pseudomonas fluorescens HPPD G336W, the Avena HPPD (AvHPPD), the HPPD from Kordia algicida FMP27 or the HPPD from Blepharisma japonicum (FMP37), Compared to Non-Tranformed Tobacco Plants (“Wt”).
(§3) The herbicides (with “g Al/ha” meaning “g active ingredient/ha”) were applied on 8 to 10 plants originated from 1 to 3 independent transgenic events per transgene.
(§4) The symptoms were evaluated and classified as following: • 3=Very strong damage • 2=Strong damage • 1=Light and transient damage • 0=No damage

[2] = system: transgenic tobacco plants expressing Avena HPPD (AvHPPD); test: Symptoms due to herbicide application on transgenic tobacco plants (damage classes 0-3); settings: AvHPPD line 659; 50 g Al/ha; one week after application
Source text: (§5) Genes coding for the selected HPPD were obtained from a member of the group of organisms consisting of Avena sativa, Pseudomonas fluorescens mutant G336W, Blepharisma japonicum and Kordia algicida and cloned into the binary vector pBin19 allowing the integration of DNA into the tobacco genome, under the control of the CaMV35S promoter. For the cloning procedures, see A2 above for Avena sativa, see B2 above for Pseudomonas fluorescens, mutant G336W, see PCT/EP2010/070567 (published as WO 2011/076882, Example 5; for Blepharisma japonicum (FMP37) and see PCT/EP2010/070575, Example 5 for Kordia algicida (FMP27). Between the sequence corresponding to the promoter and the sequence coding for the HPPD a DNA sequence coding for a transit peptide to the chloroplast was inserted, in order to add at the N-terminal extremity of the protein a target signal to allow the localization of the HPPD protein into the plant chloroplast.
as §1, §2, §3, §4

[3] = system: transgenic tobacco plants expressing HPPD from Blepharisma japonicum (FMP37); test: as above; settings: 50 g Al/ha, one week after application
Source text: as §5, §1, §2, §3, §4

[4] = system: transgenic tobacco plants expressing HPPD from Kordia algicida FMP27; test: as above; settings: 50 g Al/ha, one week after application
Source text: as §5, §1, §2, §3, §4

[5] = system: transgenic tobacco plants expressing mutant Pseudomonas fluorescens HPPD G336W (PfHPPD-G336W); test: as above; settings: PfHPPD-G336W line 646; 50 g Al/ha; one week after application
Source text: as §5, §1, §2, §3, §4

[6] = system: transgenic tobacco plants expressing tolerant HPPD enzymes; test: Tolerance of tobacco plants expressing tolerant HPPD enzymes (all transgenes)
Source text: as §5, §1, §2, §3, §4

[7] = system: soybean plants expressing Pseudomonas fluorescens G336W mutant, FMP 27 and FMP 37; test: Tolerance to HPPD inhibitors of soybean plants expressing tolerant HPPD enzymes; settings: T1 soybean plants; one week after application
Source text: Genes coding for the selected HPPD were obtained from a member of the group of organisms consisting of Blepharisma japonicum and Kordia algicida and cloned into an appropriate binary vector allowing the integration of DNA into the soybean genome, under the control of the CaMV35S promoter. For the respective cloning procedures, see WO2011076882 (PCT/EP2010/070567), Example 9; for Blepharisma japonicum (FMP37) and WO2011076889 (PCT/EP2010/070575), Example 9 for Kordia algicida (FMP27).
Between the sequence corresponding to the promoter and the sequence coding for the HPPD a DNA sequence coding for a transit peptide to the chloroplast was inserted, in order to add at the N-terminal extremity of the protein a target signal to allow the localization of the HPPD protein into the plant chloroplast. By using the vectors “pFCO112” (Blepharisma japonicum, WO2011076882), pFCO116 (Korida algicida, WO2011076889), and pFCO117” (see Example B2, above), soybean transformation was achieved as described in Example 10 of WO2011076882 (PCT/EP2010/070567) for Blepharisma japonicum (FMP37) and WO2011076889 (PCT/EP2010/070575) for Kordia algicida (FMP27). Seeds from TO events showing tolerance to tembotrione were harvested.
T1 Soybean seeds were transferred to single pots and grown under standard cultivation conditions, see WO2011076882.
Two weeks later, plants will be sprayed with several N-(tetrazol-4-yl)- or N-(triazol-3-yl)arylcarboxamides as defined above.

[8] = system: cotton plants expressing FMP 27 and FMP 37; test: Tolerance to HPPD inhibitors of cotton plants expressing tolerant HPPD enzymes; settings: T1 cotton plants; one week after application
Source text: Genes coding for the selected HPPD were obtained from a member of the group of organisms consisting of Blepharisma japonicum and Kordia algicida and cloned into an appropriate binary vector allowing the integration of DNA into the cotton genome, under the control of the CaMV35S promoter. For the respective cloning procedures, see WO2011076882 (PCT/EP2010/070567), Example 11; for Blepharisma japonicum (FMP37) and WO2011076889 (PCT/EP2010/070575), Example 11 for Kordia algicida (FMP27).
Between the sequence corresponding to the promoter and the sequence coding for the HPPD a DNA sequence coding for a transit peptide to the chloroplast was inserted, in order to add at the N-terminal extremity of the protein a target signal to allow the localization of the HPPD protein into the plant chloroplast. Cotton transformation was achieved as described in Example 12 of WO2011076882 (PCT/EP2010/070567) for Blepharisma japonicum (FMP37) and WO2011076889 (PCT/EP2010/070575) for Kordia algicida (FMP27). Seeds from T0 events showing tolerance to tembotrione were harvested.
T1 Cotton seeds were transferred to single pots and grown under standard cultivation conditions, see WO2011076882 (PCT/EP2010/070567) for Blepharisma japonicum (FMP37) and WO2011076889 (PCT/EP2010/070575) for Kordia algicida (FMP27).
At least 4 weeks later, plants will be sprayed with several N-(tetrazol-4-yl)- or N-(triazol-3-yl)arylcarboxamides as defined above.

With `CCOc1c(S(C)(=O)=O)ccc(C(=O)Nc2nnnn2C)c1Cl` [Compound 4-278] the “number of plants with Damage 0 (No damage)” value (“number … (No damage)” for short) [1] was 0, the “number of plants with Damage 1 (Light and transient damage)” value (shortened to “number … (Light and transient damage)”) [1] was 0 and the “number of plants with Damage 2 (Strong damage)” value (“number … (Strong damage)” for short) [1] was 0. The “number of plants with Damage 3 (Very strong damage)” value (shortened to “number … (Very strong damage)”) [1] was 10, the “number … (No damage)” value [2] was 9 and the “number … (Light and transient damage)” value [2] was 0. The “number … (Strong damage)” value [2] was 0, the “number … (Very strong damage)” value [2] was 1 and the “number … (No damage)” value ([3]; FMP37 line 749) was 5. The “number … (Light and transient damage)” value ([3]; FMP37 line 749) was 4, the “number … (Strong damage)” value ([3]; FMP37 line 749) was 0 and the “number … (Very strong damage)” value ([3]; FMP37 line 749) was 1. The “number … (No damage)” value ([3]; FMP37 line 754) was 5, the “number … (Light and transient damage)” value ([3]; FMP37 line 754) was 4 and the “number … (Strong damage)” value ([3]; FMP37 line 754) was 0. The “number … (Very strong damage)” value ([3]; FMP37 line 754) was 1, the “number … (No damage)” value ([3]; FMP37 line 795) was 4 and the “number … (Light and transient damage)” value ([3]; FMP37 line 795) was 3. The “number … (Strong damage)” value ([3]; FMP37 line 795) was 0, the “number … (Very strong damage)” value ([3]; FMP37 line 795) was 3 and the “number … (No damage)” value ([4]; FMP27 line 733) was 6. For the same molecule, the “number … (Light and transient damage)” value ([4]; FMP27 line 733) was 4, the “number … (Strong damage)” value ([4]; FMP27 line 733) was 0 and the “number … (Very strong damage)” value ([4]; FMP27 line 733) was 0. The “number … (No damage)” value ([4]; FMP27 line 734) was 6, the “number … (Light and transient damage)” value ([4]; FMP27 line 734) was 3 and the “number … (Strong damage)” value ([4]; FMP27 line 734) was 0. For the same molecule, the “number … (Very strong damage)” value ([4]; FMP27 line 734) was 1, the “number … (No damage)” value ([4]; FMP27 line 735) was 6 and the “number … (Light and transient damage)” value ([4]; FMP27 line 735) was 2. For the same molecule, the “number … (Strong damage)” value ([4]; FMP27 line 735) was 0, the “number … (Very strong damage)” value ([4]; FMP27 line 735) was 2 and the “number … (No damage)” value [5] was 6. The “number … (Light and transient damage)” value [5] was 3, the “number … (Strong damage)” value [5] was 0 and the “number … (Very strong damage)” value [5] was 1. The “tolerance of the transgenic tobacco plants (symptoms due to application of the herbicide)” value ([6]; T1 plants sprayed, evaluated one week after application) was “good tolerance”, the “sensitivity of transgenic tobacco plants compared to wild type (wt) plants” value ([6]; all tested independent lines, agronomically relevant dose) was “less sensitive” and the “tolerance of transgenic plants compared to the wild-type soybean plants” value [7] was “superior tolerance”. The “tolerance of transgenic plants compared to the wild-type cotton plants” value [8] was “superior tolerance”.

— patent US9078446B2, “Use of N-(tetrazol-4-yl)- or N-(triazol-3-yl)arylcarboxamides or their salts for controlling unwanted plants in areas of transgenic crop plants being tolerant to HPPD inhibitor herbicides” (BAYER INTELLECTUAL PROPERTY GMBH, priority 2011, dated 2015)
